According to patent US20070087352A9, “Inhibitors for androgen antagonist refractory prostate cancer” (priority 2003, published 2007):

Assays:
hERα-LBD = target: T1, hERα-LBD (Homo sapiens, UniProt P03372); assay: Electrophoretic mobility shift assay (native PAGE); format: binding; conditions: 2-fold or 10-fold molar excess of peptide, 6% native PAGE
T1 sequence (P03372 311-547 limits assumed): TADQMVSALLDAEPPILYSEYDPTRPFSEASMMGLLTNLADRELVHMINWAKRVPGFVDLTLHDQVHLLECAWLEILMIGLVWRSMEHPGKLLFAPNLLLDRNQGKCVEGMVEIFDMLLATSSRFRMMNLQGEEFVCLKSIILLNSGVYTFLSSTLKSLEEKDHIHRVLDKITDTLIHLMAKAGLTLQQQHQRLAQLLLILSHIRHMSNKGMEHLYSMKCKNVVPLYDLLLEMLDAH
Description: Eight microgram samples of purified hERα-LBD bound to either DES or OHT were incubated in the absence of the GRIP1 NR Box 2 peptide (SEQ ID NO:4), i.e., buffer alone, or in the presence of either a 2-fold or 10-fold molar excess of the GRIP1 NR Box 2 peptide. The binding reactions were performed on ice for 45 minutes in 10 μl of buffer containing 20 mM Tris, pH 8.1, 1 mM DTT, and 200 mM NaCl and then subjected to 6% native PAGE. Gels were stained with GELCODE Blue Stain reagent (Pierce).
In the presence of the NR box 2 peptide, the migration of the DES-LBD complex was retarded. In contrast, peptide addition had no effect on the mobility of the OHT-LBD complex.

agonist-bound ERα LBD = target: T2, agonist-bound ERα LBD (Homo sapiens, UniProt P03372); assay: Competition assays of GRIP1 NR Box 2 peptide; conditions: binding to agonist-bound ERα LBD
T2 sequence (P03372 311-547 limits assumed): T1 sequence (P03372 311-547 limits assumed)

migration of the DES-LBD complex (hERα-LBD; hERα-LBD bound to agonist DES): retarded | mobility of the OHT-LBD complex (hERα-LBD; hERα-LBD bound to antagonist OHT): no effect | IC50 (agonist-bound ERα LBD): < 400 nM
Substance: H-KHKILHRLLQDSS-OH [GRIP1 NR Box 2 peptide]
